Molecules are shown by their SMILES. Like-named read-outs stand apart in the source and are kept apart here.

One assay has as its system Aeschynomene indica. The experiment in a line: whole plant or invertebrate.
For another assay, the system named is Abutilon theophrasti. Nature of the assay: whole plant or invertebrate.
Another assay concerns Digitaria sanguinalis. Conditions: for plant mortality, measured value: Digitaria sanguinalis.
For a further assay, the system named is Echinochloa crus. Particulars: for plant mortality, measured value: Echinochloa crus.
The test system of a further assay is Xanthium spinosum. Nature of the assay: whole plant or invertebrate.
Setting [1] is: read-out: plant mortality, measured value, 125 g/ha.
Where [2] appears, read: read-out: plant mortality, measured value, 250 g/ha.
Setting [3] is: read-out: plant mortality, measured value, 500 g/ha.
[4] abbreviates: read-out: plant mortality, measured value, 175 g/ha.
Setting [5] is: read-out: plant mortality, measured value, 350 g/ha.
Setting [6] is: read-out: plant mortality, measured value, 700 g/ha.

Description for Abutilon theophrasti: (§1) X is % damage by uracil compound (a) of formula 1 at the rate of application of p kg/ha; Y is % damage by conventional herbicidal compound (b) at the rate of application of q kg/ha; and E is the expected damage caused by compounds (a) and (b) at a rate of application of p and q kg/ha.
(§2) The expected activity for a given combination of two herbicides can be calculated using equation 1 above.
Description for Aeschynomene indica: as §1, §2
Description for Digitaria sanguinalis: as §1, §2
Description for Echinochloa crus: as §1, §2
Description for Xanthium spinosum: as §1, §2

For `CC(C)N1C(=O)c2ccccc2NS1(=O)=O` [Bentazone], the figures for the pest or weed control at 125 g/ha in the assay on Aeschynomene indica (setting [1]), in the assay on Abutilon theophrasti (setting [1]) and in the assay on Xanthium spinosum (setting [1]) were 10%, 9% and 8%, respectively. Also, the pest or weed control at 250 g/ha in the assay on Aeschynomene indica (setting [2]) came out at 22%; in the assay with Abutilon theophrasti (setting [2]) it was 22%; with Xanthium spinosum (setting [2]), 18%. For the same compound, the pest or weed control at 500 g/ha was found to be 52% in the assay with Aeschynomene indica (setting [3]), 49% in the assay on Abutilon theophrasti (setting [3]) and 45% with Xanthium spinosum (setting [3]). For the same compound, the “plant mortality, measured value” in the assay with Digitaria sanguinalis (125 g/ha), in the assay with Digitaria sanguinalis (250 g/ha), in the assay with Digitaria sanguinalis (500 g/ha), with Echinochloa crus (125 g/ha), in the assay on Echinochloa crus (250 g/ha) and in the assay on Echinochloa crus (500 g/ha) was 0 throughout.

For the compound `COc1cc(OC)nc(Oc2cccc(Oc3nc(OC)cc(OC)n3)c2C(=O)O)n1` [Bispyribac-sodium], the pest or weed control at 15 g/ha in the assay with Aeschynomene indica (read-out: Data (measured value) Aeschynomene indica, 15 g/ha) amounted to 23%; in the assay with Abutilon theophrasti (read-out: Data (measured value) Abutilon theophrasti, 15 g/ha) it was 31%; in the assay with Xanthium spinosum (read-out: Data (measured value) Xanthium spinosum, 15 g/ha), 27%. For the same compound, the pest or weed control at 30 g/ha stood at 49% in the assay on Aeschynomene indica (read-out: Data (measured value) Aeschynomene indica, 30 g/ha); 62% in the assay on Abutilon theophrasti (read-out: Data (measured value) Abutilon theophrasti, 30 g/ha); 58% in the assay on Xanthium spinosum (read-out: Data (measured value) Xanthium spinosum, 30 g/ha). Moreover, the results for the “Data (measured value) Digitaria sanguinalis” value in the assay on Digitaria sanguinalis (15 g/ha) and in the assay with Digitaria sanguinalis (30 g/ha) were 20 and 47, respectively. Further, the “Data (measured value) Echinochloa crus” value in the assay on Echinochloa crus (15 g/ha) amounted to 23; in the assay with Echinochloa crus (30 g/ha), 45.

Consider `Nc1cnn(-c2ccccc2)c(=O)c1Cl` [Chloridazon], for which the pest or weed control at 175 g/ha stood at 11% with Aeschynomene indica (setting [4]), 14% with Abutilon theophrasti (setting [4]) and 7% with Xanthium spinosum (setting [4]). For the same compound, the pest or weed control at 350 g/ha is 29% in the assay with Aeschynomene indica (setting [5]), 30% with Abutilon theophrasti (setting [5]) and 22% in the assay on Xanthium spinosum (setting [5]). For the same compound, the pest or weed control at 700 g/ha in the assay on Aeschynomene indica (setting [6]) was found to be 57%; in the assay on Abutilon theophrasti (setting [6]) it was 64%; in the assay on Xanthium spinosum (setting [6]), 46%. Moreover, the “plant mortality, measured value” in the assay on Digitaria sanguinalis (175 g/ha) was 14; in the assay with Digitaria sanguinalis (350 g/ha) it was 28; with Digitaria sanguinalis (700 g/ha) it was 63; with Echinochloa crus (175 g/ha), 13; in the assay on Echinochloa crus (350 g/ha), 27; in the assay with Echinochloa crus (700 g/ha), 54.

For the origin of these results see US10206399B2, “Herbicidal composition comprising uracil compound as active ingredient” (Dongbu Farm Hannong Co., Ltd., priority 2012, dated 2019).
